Assay [1] addresses T1, Muscarinic acetylcholine receptor M1 (Homo sapiens) (UniProt P11229).
T1 sequence (whole entry): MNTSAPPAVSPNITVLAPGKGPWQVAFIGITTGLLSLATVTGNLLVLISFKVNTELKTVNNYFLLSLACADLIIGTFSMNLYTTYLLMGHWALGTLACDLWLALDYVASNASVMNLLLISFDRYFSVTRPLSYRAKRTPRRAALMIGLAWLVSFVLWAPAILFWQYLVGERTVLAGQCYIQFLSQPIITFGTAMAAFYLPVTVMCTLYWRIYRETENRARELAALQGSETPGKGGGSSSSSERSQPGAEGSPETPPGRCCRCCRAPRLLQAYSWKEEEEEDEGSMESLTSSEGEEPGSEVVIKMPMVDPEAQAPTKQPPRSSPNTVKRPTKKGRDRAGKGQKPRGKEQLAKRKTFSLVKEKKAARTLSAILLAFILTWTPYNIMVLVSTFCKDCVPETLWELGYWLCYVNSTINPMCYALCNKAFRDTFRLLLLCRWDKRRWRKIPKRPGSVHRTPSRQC
In words: Agonist activity at human muscarinic M1 receptor expressed in CHO-K1 cells assessed as increase of acetylcholine-induced calcium flux at 10 uM by FLIPR assay relative to acetylcholine. The class given is functional, cell-based. (In general: Calcium assays in cells follow changes in intracellular calcium, usually with a dye or a luminescent sensor.)

Assay [2] deals with Alpha-1A adrenergic receptor (Homo sapiens, UniProt P35348). In words: Binding affinity to human adrenergic alpha1A receptor by radioligand displacement assay. (Displacement assays read how much labelled ligand stays bound in the presence of the test substance.)
Sequence of Alpha-1A adrenergic receptor (P35348 whole entry): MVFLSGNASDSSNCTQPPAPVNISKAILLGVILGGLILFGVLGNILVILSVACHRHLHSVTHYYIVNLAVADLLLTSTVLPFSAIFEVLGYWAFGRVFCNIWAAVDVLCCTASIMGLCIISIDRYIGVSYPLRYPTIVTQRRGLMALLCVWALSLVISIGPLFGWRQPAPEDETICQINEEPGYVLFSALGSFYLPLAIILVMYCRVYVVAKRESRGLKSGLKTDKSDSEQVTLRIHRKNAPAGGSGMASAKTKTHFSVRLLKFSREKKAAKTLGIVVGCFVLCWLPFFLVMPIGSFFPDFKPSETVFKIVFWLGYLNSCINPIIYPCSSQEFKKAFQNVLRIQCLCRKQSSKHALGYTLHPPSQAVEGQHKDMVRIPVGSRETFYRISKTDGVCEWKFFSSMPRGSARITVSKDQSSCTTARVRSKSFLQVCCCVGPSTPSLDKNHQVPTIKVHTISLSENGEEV
Assay [3] deals with T2, Muscarinic acetylcholine receptor M4 (Homo sapiens) (UniProt P08173).
T2 sequence (whole entry): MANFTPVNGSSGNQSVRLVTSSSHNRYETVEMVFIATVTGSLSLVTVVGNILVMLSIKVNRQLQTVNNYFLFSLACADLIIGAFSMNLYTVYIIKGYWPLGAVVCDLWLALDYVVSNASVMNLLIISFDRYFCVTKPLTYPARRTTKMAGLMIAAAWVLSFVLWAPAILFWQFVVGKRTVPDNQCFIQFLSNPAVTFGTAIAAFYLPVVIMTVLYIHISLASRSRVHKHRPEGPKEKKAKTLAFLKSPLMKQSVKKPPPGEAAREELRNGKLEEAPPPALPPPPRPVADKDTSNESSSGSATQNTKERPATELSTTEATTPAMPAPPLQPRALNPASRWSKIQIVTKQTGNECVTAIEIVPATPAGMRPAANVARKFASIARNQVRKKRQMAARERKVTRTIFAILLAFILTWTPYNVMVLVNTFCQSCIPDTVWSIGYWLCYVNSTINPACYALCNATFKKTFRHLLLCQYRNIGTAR
Briefly: Agonist activity at human muscarinic M4 receptor expressed in BHK-21 cells coexpressing Galpha16 subunit assessed as increase of acetylcholine-induced calcium flux at 10 uM by FLIPR assay relative to acetylcholine. The class given is functional, cell-based.

Assay [4] has as its target Alpha-1D adrenergic receptor (Homo sapiens, UniProt P25100). Briefly: Binding affinity to human adrenergic Alpha-1D receptor by radioligand displacement assay.
In assay [5] the target is T1, Muscarinic acetylcholine receptor M1 (Homo sapiens). Briefly: Agonist activity at human muscarinic M1 receptor expressed in CHO-K1 cells assessed as increase of acetylcholine-induced calcium flux by FLIPR assay relative to acetylcholine. The class given is functional, cell-based.
Assay [6] concerns the target T3, Muscarinic acetylcholine receptor M5 (Homo sapiens, UniProt P08912).
T3 sequence (P08912 whole entry): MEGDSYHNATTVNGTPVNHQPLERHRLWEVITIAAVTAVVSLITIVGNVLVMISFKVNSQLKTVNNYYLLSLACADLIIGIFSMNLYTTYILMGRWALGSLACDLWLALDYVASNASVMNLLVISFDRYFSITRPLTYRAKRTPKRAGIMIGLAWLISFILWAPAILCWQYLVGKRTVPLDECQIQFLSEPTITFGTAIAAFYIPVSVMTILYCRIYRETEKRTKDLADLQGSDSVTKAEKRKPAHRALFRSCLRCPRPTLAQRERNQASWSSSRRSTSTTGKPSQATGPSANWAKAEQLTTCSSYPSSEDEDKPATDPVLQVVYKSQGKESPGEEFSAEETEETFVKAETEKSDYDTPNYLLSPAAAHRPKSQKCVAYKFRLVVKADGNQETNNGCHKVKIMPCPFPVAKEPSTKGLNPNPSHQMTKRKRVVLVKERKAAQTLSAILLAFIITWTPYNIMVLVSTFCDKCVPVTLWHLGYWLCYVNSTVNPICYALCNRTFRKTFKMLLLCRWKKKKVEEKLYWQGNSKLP
In words: biochemical.
Description: Displacement of [3H]-4-DAMP from human muscarinic M5 receptor expressed in BHK-21 cells

Assay [7] concerns the target 5-hydroxytryptamine receptor 2C (Homo sapiens, UniProt P28335). In words: Binding affinity to human 5HT2C receptor agonist site by radioligand displacement assay.
The target of assay [8] is Alpha-1B adrenergic receptor (Homo sapiens, UniProt P35368). Briefly: Binding affinity to human adrenergic Alpha-1B receptor by radioligand displacement assay.
Sequence of Alpha-1B adrenergic receptor (P35368 whole entry): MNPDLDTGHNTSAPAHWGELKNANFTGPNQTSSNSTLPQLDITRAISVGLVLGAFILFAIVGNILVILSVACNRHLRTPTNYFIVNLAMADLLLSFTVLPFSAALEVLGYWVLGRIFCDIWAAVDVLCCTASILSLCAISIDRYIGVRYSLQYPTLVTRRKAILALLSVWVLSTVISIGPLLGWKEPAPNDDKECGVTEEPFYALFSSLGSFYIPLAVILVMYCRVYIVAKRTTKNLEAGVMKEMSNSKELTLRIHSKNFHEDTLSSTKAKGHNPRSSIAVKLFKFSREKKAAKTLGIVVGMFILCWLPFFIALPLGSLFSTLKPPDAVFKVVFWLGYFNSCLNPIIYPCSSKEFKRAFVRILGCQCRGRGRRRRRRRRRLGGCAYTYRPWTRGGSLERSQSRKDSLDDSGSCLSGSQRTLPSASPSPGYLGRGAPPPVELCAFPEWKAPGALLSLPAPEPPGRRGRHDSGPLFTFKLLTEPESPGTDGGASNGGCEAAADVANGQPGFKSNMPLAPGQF
Assay [9] addresses T4, Muscarinic acetylcholine receptor M5 (Homo sapiens) (UniProt P08912).
T4 sequence (whole entry): T3 sequence (P08912 whole entry)
In words: Agonist activity at human muscarinic M5 receptor expressed in BHK-21 cells assessed as increase of acetylcholine-induced calcium flux at 10 uM by FLIPR assay relative to acetylcholine. The class given is functional, cell-based.

The target in assay [10] is T5, Muscarinic acetylcholine receptor M3 (Homo sapiens, UniProt P20309). Briefly: Agonist activity at human muscarinic M3 receptor expressed in BHK-21 cells assessed as increase of acetylcholine-induced calcium flux at 10 uM by FLIPR assay relative to acetylcholine. The class given is functional, cell-based.
Target sequence in this assay (P20309 whole entry, looked up): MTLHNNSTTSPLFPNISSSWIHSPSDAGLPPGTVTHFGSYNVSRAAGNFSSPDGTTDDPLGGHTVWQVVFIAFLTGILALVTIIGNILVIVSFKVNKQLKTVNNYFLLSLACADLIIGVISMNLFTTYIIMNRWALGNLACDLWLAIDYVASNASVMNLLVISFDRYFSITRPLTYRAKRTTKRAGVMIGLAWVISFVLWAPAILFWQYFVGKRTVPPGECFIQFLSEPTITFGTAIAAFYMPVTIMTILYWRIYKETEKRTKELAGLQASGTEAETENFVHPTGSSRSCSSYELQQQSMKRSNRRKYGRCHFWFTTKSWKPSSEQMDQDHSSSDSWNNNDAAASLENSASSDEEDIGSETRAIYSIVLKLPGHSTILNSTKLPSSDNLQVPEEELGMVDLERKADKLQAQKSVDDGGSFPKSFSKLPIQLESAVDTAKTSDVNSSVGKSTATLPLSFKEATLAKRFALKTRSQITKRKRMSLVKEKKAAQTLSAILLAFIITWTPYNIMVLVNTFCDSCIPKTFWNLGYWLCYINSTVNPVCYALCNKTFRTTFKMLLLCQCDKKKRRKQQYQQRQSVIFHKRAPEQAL
The target in assay [11] is T6, Muscarinic acetylcholine receptor M2 (Homo sapiens, UniProt P08172).
T6 sequence (P08172 whole entry): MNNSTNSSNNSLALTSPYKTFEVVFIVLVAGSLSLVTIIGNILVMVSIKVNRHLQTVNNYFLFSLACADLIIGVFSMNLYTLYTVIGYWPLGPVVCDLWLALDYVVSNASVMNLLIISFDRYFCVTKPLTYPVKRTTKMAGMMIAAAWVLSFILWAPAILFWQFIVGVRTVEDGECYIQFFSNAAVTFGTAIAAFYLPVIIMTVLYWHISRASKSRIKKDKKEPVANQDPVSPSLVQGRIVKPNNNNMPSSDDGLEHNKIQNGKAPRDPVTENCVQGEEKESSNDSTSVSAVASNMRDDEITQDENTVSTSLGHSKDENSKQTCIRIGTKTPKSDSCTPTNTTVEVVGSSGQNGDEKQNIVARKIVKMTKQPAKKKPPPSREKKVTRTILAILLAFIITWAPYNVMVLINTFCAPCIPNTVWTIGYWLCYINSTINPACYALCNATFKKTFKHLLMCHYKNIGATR
Briefly: Displacement of [3H]-AFDX-384 from human muscarinic M2 receptor expressed in CHO-K1 cells. The class given is cell-based.

Assay [12] deals with Muscarinic acetylcholine receptor M1 (Homo sapiens), P11229 [Y381A]. Briefly: Agonist activity at human muscarinic M1 receptor Y381A mutant expressed in CHO-K1 cells assessed as increase of acetylcholine-induced calcium flux by FLIPR assay relative to acetylcholine. The class given is functional, cell-based.
Sequence of Muscarinic acetylcholine receptor M1 (Homo sapiens), P11229 [Y381A] (P11229 whole entry Y381A): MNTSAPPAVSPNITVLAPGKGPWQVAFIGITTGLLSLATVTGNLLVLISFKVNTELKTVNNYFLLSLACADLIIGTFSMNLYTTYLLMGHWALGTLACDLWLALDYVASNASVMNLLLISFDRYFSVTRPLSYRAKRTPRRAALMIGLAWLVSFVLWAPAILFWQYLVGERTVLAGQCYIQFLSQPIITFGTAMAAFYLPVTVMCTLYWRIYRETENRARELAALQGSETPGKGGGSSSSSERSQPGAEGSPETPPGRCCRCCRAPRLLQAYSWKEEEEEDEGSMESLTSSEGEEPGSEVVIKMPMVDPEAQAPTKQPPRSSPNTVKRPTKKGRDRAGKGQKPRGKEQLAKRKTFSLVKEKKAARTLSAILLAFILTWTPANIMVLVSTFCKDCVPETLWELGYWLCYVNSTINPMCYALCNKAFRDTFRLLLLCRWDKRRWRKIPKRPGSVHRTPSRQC
The target in assay [13] is T2, Muscarinic acetylcholine receptor M4 (Homo sapiens). In words: Agonist activity at human muscarinic M4 receptor expressed in BHK-21 cells coexpressing Galpha16 subunit assessed as increase of acetylcholine-induced calcium flux by FLIPR assay relative to acetylcholine. The class given is functional, cell-based.
Assay [14] concerns the target T7, Muscarinic acetylcholine receptor M2 (Homo sapiens) (UniProt P08172).
T7 sequence (whole entry): T6 sequence (P08172 whole entry)
Briefly: Agonist activity at human muscarinic M2 receptor expressed in CHO-K1 cells coexpressing Galpha16 subunit assessed as increase of acetylcholine-induced calcium flux at 10 uM by FLIPR assay relative to acetylcholine. The class given is functional, cell-based.

Assay [15] addresses T3, Muscarinic acetylcholine receptor M5. In words: Agonist activity at human muscarinic M5 receptor expressed in BHK-21 cells assessed as increase of acetylcholine-induced calcium flux by FLIPR assay. The class given is functional, cell-based.
The target in assay [16] is T4, Muscarinic acetylcholine receptor M5 (Homo sapiens). In words: Agonist activity at human muscarinic M5 receptor expressed in BHK-21 cells assessed as increase of acetylcholine-induced calcium flux by FLIPR assay relative to acetylcholine. The class given is functional, cell-based.
In assay [17] the target is Muscarinic acetylcholine receptor M1 (Homo sapiens, UniProt P11229, Y381A).
Sequence of Muscarinic acetylcholine receptor M1 (Homo sapiens, UniProt P11229, Y381A) (P11229 whole entry Y381A): as above
In assay [18] the target is T5, Muscarinic acetylcholine receptor M3. Briefly: Displacement of [3H]-4-DAMP from human muscarinic M3 receptor expressed in BHK-21 cells. The class given is cell-based.
Target sequence in this assay (P20309 whole entry): as the sequence (P20309 whole entry, looked up) above
For assay [19], the target named is T8, Muscarinic acetylcholine receptor M1 (Homo sapiens, UniProt P11229).
T8 sequence (P11229 whole entry): T1 sequence (whole entry)

For assay [20], the target named is T5, Muscarinic acetylcholine receptor M3.
Target sequence in this assay (P20309 whole entry): as the sequence (P20309 whole entry, looked up) above
Assay [21] concerns the target T9, Muscarinic acetylcholine receptor M4 (Homo sapiens, UniProt P08173).
T9 sequence (P08173 whole entry): T2 sequence (whole entry)
In words: Agonist activity at human muscarinic M4 receptor expressed in BHK-21 cells coexpressing Galpha16 subunit assessed as increase of acetylcholine-induced calcium flux by FLIPR assay. The class given is functional, cell-based.

The text below walks through data of ChEMBL document CHEMBL1240489, “Discovery of N-{1-[3-(3-oxo-2,3-dihydrobenzo[1,4]oxazin-4-yl)propyl]piperidin-4-yl}-2-phenylacetamide (Lu AE51090): an allosteric muscarinic M1 receptor agonist with unprecedented selectivity and procognitive potential” (J Med Chem, 2010).

Sequence of Alpha-1D adrenergic receptor (P25100 whole entry): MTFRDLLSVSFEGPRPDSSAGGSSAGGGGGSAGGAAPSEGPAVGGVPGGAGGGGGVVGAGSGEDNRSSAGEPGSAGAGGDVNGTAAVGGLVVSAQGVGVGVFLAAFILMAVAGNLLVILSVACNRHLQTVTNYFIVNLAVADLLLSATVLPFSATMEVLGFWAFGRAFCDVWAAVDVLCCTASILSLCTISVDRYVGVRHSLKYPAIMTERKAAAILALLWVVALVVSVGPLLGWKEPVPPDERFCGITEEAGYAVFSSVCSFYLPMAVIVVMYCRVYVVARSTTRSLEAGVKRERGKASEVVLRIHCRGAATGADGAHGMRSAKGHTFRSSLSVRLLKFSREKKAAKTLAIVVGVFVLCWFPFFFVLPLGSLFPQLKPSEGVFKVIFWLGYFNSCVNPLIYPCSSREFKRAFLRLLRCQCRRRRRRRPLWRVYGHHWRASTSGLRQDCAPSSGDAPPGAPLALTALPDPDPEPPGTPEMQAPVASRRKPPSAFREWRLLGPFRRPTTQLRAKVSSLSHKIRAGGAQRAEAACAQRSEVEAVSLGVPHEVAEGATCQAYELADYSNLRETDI
Sequence of 5-hydroxytryptamine receptor 2C (P28335 whole entry): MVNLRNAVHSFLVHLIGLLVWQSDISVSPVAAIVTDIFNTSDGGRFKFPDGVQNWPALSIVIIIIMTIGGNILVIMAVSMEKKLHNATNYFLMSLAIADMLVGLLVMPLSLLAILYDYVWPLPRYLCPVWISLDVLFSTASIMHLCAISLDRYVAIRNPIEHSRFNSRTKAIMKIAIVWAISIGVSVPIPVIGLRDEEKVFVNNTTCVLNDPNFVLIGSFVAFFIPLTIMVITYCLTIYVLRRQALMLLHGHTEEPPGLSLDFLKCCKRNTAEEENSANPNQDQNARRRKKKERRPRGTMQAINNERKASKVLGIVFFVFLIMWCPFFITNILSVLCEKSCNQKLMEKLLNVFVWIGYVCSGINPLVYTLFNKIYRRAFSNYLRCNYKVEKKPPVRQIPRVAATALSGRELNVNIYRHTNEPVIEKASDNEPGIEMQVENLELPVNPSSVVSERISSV

Broadly, the Emax is the size of the effect at its maximum, as opposed to the concentration needed. For `O=C(NC1CCN(CCCN2C(=O)COc3ccccc32)CC1)C1CCCCC1`, the Emax in assay [1] turned out to be 3%.
A word on the Ki: it is a measure of affinity in units of concentration, obtained from inhibition or displacement. Higher therefore signals weaker binding. Turning to `Cc1ccccc1CN1CCC(N2CCC(n3c(=O)[nH]c4ccccc43)CC2)CC1`, the Ki in assay [2] came to 11 nM; in assay [4], 290 nM; in assay [6], 940 nM; in assay [7], 85 nM; in assay [8] it was 19 nM; in assay [11], 320 nM. In addition, the Emax was 38% in [3], 86% in [5], 5% in assay [9] and 1% in assay [10].
By EC50 is commonly meant the concentration that produces a half-maximal response. Take `Clc1ccc2c(c1)N=C(N1CCNCC1)c1ccccc1N2` [N-DESMETHYLCLOZAPINE]: the Emax in assay [12] was found to be 72%; in [13], 12%; in assay [5] it was 75%; in [14], 3%; in assay [16] it was 34%; in [10], 10%. Besides, the Ki in assay [6] came out at 51 nM; in assay [18], 90 nM; in [11], 250 nM. Also, the values for the EC50 in assay [15], in [17] and in assay [19] were 170 nM, 140 nM and 18 nM, respectively.
For `CCCCCCOc1nsnc1C1=CCCN(C)C1` [XANOMELINE], the Emax in assay [13] turned out to be 72%; in [5] it was 89%; in assay [14], 9%; in [16], 60%. It took 120 nM to reach a half-maximal effect in [20] (EC50). Moreover, the Ki in [18] is 13 nM.
`COc1cccc(CC(=O)NC2CCN(CCCN3C(=O)COc4ccccc43)CC2)c1`: the Emax in assay [3] came out at 3%; in assay [5], 86%; in assay [14], 0%; in assay [9] it was 6%; in [10], 0%. In assay [19], this compound had an EC50 of 130 nM.
As to `COc1ccc(CC(=O)NC2CCN(CCCN3C(=O)CCc4cc(F)c(F)cc43)CC2)cc1OC`, the EC50 in [21] is 300 nM; in assay [15], 1200 nM; in assay [19], 13 nM. The Emax in [13] came out at 48%; in assay [5], 91%; in [14] it was 2%; in assay [16] it was 52%; in assay [10], 7%.
For `O=C(NC1CCN(CCCN2C(=O)COc3ccccc32)CC1)c1ccccc1`, the Emax in [1] stood at 8%.
As to `CC(C)CC(=O)NC1CCN(CCCN2C(=O)COc3ccccc32)CC1`, in [1], the Emax is 21%.
